Assay results as given in patent EP0908457B1, “3-(1,2-benzisothiazol- and isoxazol-5-Y1)-2,4(1H,3H)-pyrimidinedione or thione and 3-(1,2-benzisothiazol- and isoxazol-5-y1)-4(3H)-pyrimidinone or thione herbicidal agents” (BASF AKTIENGESELLSCHAFT, priority 1997, dated 1999).

Experiments:
[1] = test system: Cyperus serotinus, Rottb.; test: Preemergence weed control under flooded paddy conditions, CYPSE (Flatsedge); format: in vivo; settings: preemergence, rated 3-4 weeks after treatment
[2] = test system: Sagittaria pygmaea, L.; test: Preemergence weed control under flooded paddy conditions, SAGPY (Arrowhead (Pygmaea)); format: in vivo; settings: preemergence, flooded paddy, rated 3-4 weeks after treatment
[3] = test system: Monochoria vaginalis, Presl.; test: Preemergence weed control under flooded paddy conditions, MOOVA (Monochoria); format: in vivo; settings: preemergence, flooded paddy, rated 3-4 weeks after treatment
[4] = test system: Cyperus iria; test: Preemergence weed control under flooded paddy conditions, CYPIR (Rice Flatsedge); format: in vivo; settings: preemergence, flooded paddy, rated 3-4 weeks after treatment
[5] = test system: Echinochloa oryzoides (Ard.) Fritsch.; test: Preemergence weed control under flooded paddy conditions, ECHORC (Watergrass (Calif.)); format: in vivo; settings: preemergence, flooded paddy, rated 3-4 weeks after treatment
[6] = test system: Oryza sativa, (L.) Tebonnet; test: Rice tolerance to post-transplant applications under flooded paddy conditions (Example 187), ORYSAT (Rice, Tebonnet); settings: rated 3-4 weeks after treatment
Also: meaning of each grade not given here.

Row | Compound | herbicidal effect rating, CYPSE ([1]; Rate 0.0320 kg/ha) | herbicidal effect rating, CYPSE ([1]; Rate 0.0620 kg/ha) | herbicidal effect rating, CYPSE ([1]; Rate 0.1250 kg/ha) | herbicidal effect rating, CYPSE ([1]; Rate 0.2500 kg/ha) | herbicidal effect rating, SAGPY ([2]; Rate 0.0320 kg/ha) | herbicidal effect rating, SAGPY ([2]; Rate 0.0620 kg/ha) | herbicidal effect rating, SAGPY ([2]; Rate 0.1250 kg/ha) | herbicidal effect rating, SAGPY ([2]; Rate 0.2500 kg/ha) | herbicidal effect rating, MOOVA ([3]; Rate 0.0320 kg/ha) | herbicidal effect rating, MOOVA ([3]; Rate 0.0620 kg/ha) | herbicidal effect rating, MOOVA ([3]; Rate 0.1250 kg/ha) | herbicidal effect rating, MOOVA ([3]; Rate 0.2500 kg/ha) | herbicidal effect rating, CYPIR ([4]; Rate 0.0320 kg/ha) | herbicidal effect rating, CYPIR ([4]; Rate 0.0620 kg/ha) | herbicidal effect rating, CYPIR ([4]; Rate 0.1250 kg/ha) | herbicidal effect rating, CYPIR ([4]; Rate 0.2500 kg/ha) | herbicidal effect rating, ECHORC ([5]; Rate 0.0320 kg/ha) | herbicidal effect rating, ECHORC ([5]; Rate 0.0620 kg/ha) | herbicidal effect rating, ECHORC ([5]; Rate 0.1250 kg/ha) | herbicidal effect rating, ECHORC ([5]; Rate 0.2500 kg/ha) | also measured
1 | C#CC(C)OC(=O)C(C)(C)Oc1ccc(C)cc1-c1nsc2ccc(-n3c(=O)cc(C(F)(F)F)n(C)c3=O)cc12 (stereo not drawn) [Example 531, Propionic acid, 2-{{2-{5-[3,6-dihydro-3-methyl-2,6-dioxo-4-(trifluoromethyl)-1(2H)-pyrimidinyl]-1,2-benzisothiazol-3-yl}-p-tolyl}oxy}-2-methyl-, 1-methyl-2-propynyl ester] | 0.0 | 0.0 | 3.0 | 3.0 | 0.0 | 0.0 | 3.0 | 3.0 | 9.0 | 9.0 | 9.0 | 9.0 | 0.0 | 0.0 | 4.0 | 4.0 | 9.0 | 9.0 | 9.0 | 9.0 | herbicidal effect rating ORYSAT ([6]; Rate 0.0320 kg/ha): 0.0; herbicidal effect rating ORYSAT ([6]; Rate 0.0620 kg/ha): 0.0; herbicidal effect rating ORYSAT ([6]; Rate 0.1250 kg/ha): 3.0; herbicidal effect rating ORYSAT ([6]; Rate 0.2500 kg/ha): 9.0
2 | COCC(C)OC(=O)C(C)(C)Oc1ccc(C)cc1-c1nsc2ccc(-n3c(=O)cc(C(F)(F)F)n(C)c3=O)cc12 (stereo not drawn) [Example 532, Propionic acid, 2-{{2-{5-[3,6-dihydro-3-methyl-2,6-dioxo-4-(trifluoromethyl)-1(2H)-pyrimidinyl]-1,2-benzisothiazol-3-yl}-p-tolyl}oxy}-2-methyl-, 2-methoxy-1-methylethyl ester] | 0.0 | 0.0 | 0.0 | 0.0 | 0.0 | 0.0 | 0.0 | 9.0 | 9.0 | 9.0 | 9.0 | 9.0 | 9.0 | 9.0 | 9.0 | 9.0 | 9.0 | 9.0 | 9.0 | 9.0 | herbicidal effect rating ORYSAT ([6]; Rate 0.0320 kg/ha): 0.0; herbicidal effect rating ORYSAT ([6]; Rate 0.0620 kg/ha): 0.0; herbicidal effect rating ORYSAT ([6]; Rate 0.1250 kg/ha): 0.0; herbicidal effect rating ORYSAT ([6]; Rate 0.2500 kg/ha): 2.0
3 | Cc1ccc(OCC(=O)OCCC2OCC(C)(C)CO2)c(-c2nsc3ccc(-n4c(=O)cc(C(F)(F)F)n(C)c4=O)cc23)c1 [Example 533, Acetic acid, {{2-{5-[3,6-dihydro-3-methyl-2,6-dioxo-4-(trifluoromethyl)-1(2H)-pyrimidinyl]-1,2-benzisothiazol-3-yl}-p-tolyl}oxy}-, 2-(5,5-dimethyl-m-dioxan-2-yl)ethyl ester] | 0.0 | 0.0 | 3.0 | 9.0 | 0.0 | 0.0 | 0.0 | 4.0 | 9.0 | 9.0 | 9.0 | 9.0 | 2.0 | 3.0 | 4.0 | 9.0 | 7.5 | 9.0 | 9.0 | 9.0 | herbicidal effect rating ORYSAT ([6]; Rate 0.0320 kg/ha): 3.0; herbicidal effect rating ORYSAT ([6]; Rate 0.0620 kg/ha): 4.5; herbicidal effect rating ORYSAT ([6]; Rate 0.1250 kg/ha): 5.0; herbicidal effect rating ORYSAT ([6]; Rate 0.2500 kg/ha): 8.0
4 | COCCCOCCCOC(=O)COc1ccc(C)cc1-c1nsc2ccc(-n3c(=O)cc(C(F)(F)F)n(C)c3=O)cc12 [Example 536, Acetic acid, {{2-{5-[3,6-dihydro-3-methyl-2,6-dioxo-4-(trifluoromethyl)-1(2H)-pyrimidinyl]-1,2-benzisothiazol-3-yl}-p-tolyl}oxy}-, 3-(3-methoxypropoxy)propyl ester] | 0.0 | 0.0 | 0.0 | 0.0 | 0.0 | 0.0 | 0.0 | 0.0 | 9.0 | 9.0 | 9.0 | 9.0 | 0.0 | 0.0 | 0.0 | 4.0 | 3.0 | 4.0 | 5.0 | 9.0 | herbicidal effect rating ORYSAT ([6]; Rate 0.0320 kg/ha): 0.0; herbicidal effect rating ORYSAT ([6]; Rate 0.0620 kg/ha): 0.0; herbicidal effect rating ORYSAT ([6]; Rate 0.1250 kg/ha): 1.0; herbicidal effect rating ORYSAT ([6]; Rate 0.2500 kg/ha): 4.0
5 | Cc1ccc(OCC(=O)c2ccc(Cl)cc2)c(-c2nsc3ccc(-n4c(=O)cc(C(F)(F)F)n(C)c4=O)cc23)c1 [Example 538, 2,4(1H,3H)-Pyrimidinedione, 3-{3-{6-[(p-chlorophenacyl)oxy]-m-tolyl}-1,2-benzisothiazol-5-yl}-1-methyl-6-(trifluoromethyl)-] | 0.0 | 0.0 | 0.0 | 0.0 | 0.0 | 0.0 | 0.0 | 0.0 | 9.0 | 9.0 | 9.0 | 9.0 | 0.0 | 0.0 | 0.0 | 0.0 | 2.1 | 3.4 | 4.7 | 9.0 | herbicidal effect rating, CYPSE ([1]; Rate 0.5000 kg/ha): 0.0; herbicidal effect rating, SAGPY ([2]; Rate 0.5000 kg/ha): 0.0; herbicidal effect rating, MOOVA ([3]; Rate 0.5000 kg/ha): 9.0; herbicidal effect rating, CYPIR ([4]; Rate 0.5000 kg/ha): 9.0; herbicidal effect rating, ECHORC ([5]; Rate 0.5000 kg/ha): 9.0; herbicidal effect rating ORYSAT ([6]; Rate 0.0320 kg/ha): 0.0; herbicidal effect rating ORYSAT ([6]; Rate 0.0620 kg/ha): 0.0; herbicidal effect rating ORYSAT ([6]; Rate 0.1250 kg/ha): 1.0; herbicidal effect rating ORYSAT ([6]; Rate 0.2500 kg/ha): 1.0; herbicidal effect rating ORYSAT ([6]; Rate 0.5000 kg/ha): 1.0
